This passage reports EC50 results from patent US11932636B2, “RAD51 inhibitors” (Cyteir Therapeutics, Inc., priority 2019, dated 2024).

Molecules are shown by their SMILES.

For the experiment, the system named is Daudi cells (AID positive). Description: Compound primary screening: cell death in AID positive Daudi cells (Cell-Titer Glo, Day 7). The format is cell-based. The settings on record: Homo sapiens, 168 h; Daudi cells, AID positive; cell death on Day 7, Cell-Titer Glo; read-out: Cellular activity in AID + (Daudi). In a few lines: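 AID-positive Daudi cells were seeded at 1250 cells per well and treated with serially diluted compound delivered from a DMSO/media master plate. Cultures were incubated at 37 °C, and cell death was measured on Day 7 with Cell-Titer Glo luminescence.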
Turning to `CCNS(=O)(=O)c1cc(Nc2ccc(C)nn2)ccc1-c1cnc([C@H]2CC[C@H](NC(=O)OC(C)C)CC2)s1` [Compound 162, isopropyl trans-N-[4-[5-[2-(ethylsulfamoyl)-4-[(6-methylpyridazin-3-yl)amino]phenyl]thiazol-2-yl]cyclohexyl]carbamate], the EC50 is < 100 nM.

As for `CCNS(=O)(=O)c1cc(Nc2cnc(C(C)C)cn2)ccc1-c1cnc([C@H]2CC[C@H](NC(=O)OC(C)C)CC2)s1` [Compound 163, isopropyl trans-N-[4-[5-[2-(ethylsulfamoyl)-4-[(5-isopropylpyrazin-2-yl)amino]phenyl]thiazol-2-yl]cyclohexyl]carbamate], the EC50 lay within 100 to 1000 nM.

In the case of `CCNS(=O)(=O)c1cc(Nc2cc(C(C)C)cnn2)ccc1-c1cnc([C@H]2CC[C@H](NC(=O)OC(C)C)CC2)s1` [Compound 164, isopropyl trans-N-[4-[5-[2-(ethylsulfamoyl)-4-[(5-isopropylpyridazin-3-yl)amino]phenyl]thiazol-2-yl]cyclohexyl]carbamate], the EC50 is 100 to 1000 nM.

As for `CCNS(=O)(=O)c1cc(NC2(C)COC2)ccc1-c1cnc([C@H]2CC[C@H](NC(=O)OC)CC2)s1` [Compound 165, methyl trans-N-[4-[5-[2-(ethylsulfamoyl)-4-[(3-methyl-oxetan-3-yl)amino]phenyl]thiazol-2-yl]cyclohexyl]carbamate], the EC50 lay within 1000 to 10000 nM.

On to `CCNS(=O)(=O)c1cc(Nc2cn[nH]c2)ccc1-c1cnc([C@H]2CC[C@H](NC(=O)OC)CC2)s1` [Compound 166, methyl trans-N-[4-[5-[2-(ethylsulfamoyl)-4-[(1H-pyrazol-4-yl)amino]phenyl]thiazol-2-yl]cyclohexyl]carbamate], for which the EC50 fell in the range of 1000 to 10000 nM.

As for `CCNS(=O)(=O)c1cc(Nc2ccn[nH]2)ccc1-c1cnc([C@H]2CC[C@H](NC(=O)OC)CC2)s1` [Compound 167, methyl trans-N-[4-[5-[2-(ethylsulfamoyl)-4-[(1H-pyrazol-5-yl)amino]phenyl]thiazol-2-yl]cyclohexyl]carbamate], the EC50 is 100 to 1000 nM.

Consider `CCNS(=O)(=O)c1cc(Nc2ccnn2C(C)C)ccc1-c1cnc([C@H]2CC[C@H](NC(=O)OC(C)(C)C)CC2)s1` [Compound 170, tert-butyl trans-N-[4-[5-[2-(ethylsulfamoyl)-4-[(2-isopropylpyrazol-3-yl)amino]phenyl]thiazol-2-yl]cyclohexyl]carbamate], for which the EC50 was 100 to 1000 nM.

On to `CCNS(=O)(=O)c1cc(Nc2cc(C(C)C)ncn2)ccc1-c1cnc([C@H]2CC[C@H](NC(=O)OC(C)C)CC2)s1` [Compound 171, isopropyl trans-N-[4-[5-[2-(ethylsulfamoyl)-4-[(6-isopropylpyrimidin-4-yl)amino]phenyl]thiazol-2-yl]cyclohexyl]carbamate], for which the EC50 was in the range of 100 to 1000 nM.

Take `CCNS(=O)(=O)c1cc(Nc2ccc(=O)n(C)n2)ccc1-c1cnc([C@H]2CC[C@H](NC(=O)OC(C)C)CC2)s1` [Compound 172, isopropyl trans-N-[4-[5-[2-(ethylsulfamoyl)-4-[(1-methyl-6-oxo-pyridazin-3-yl)amino]phenyl]thiazol-2-yl]cyclohexyl]carbamate]: the EC50 is 100 to 1000 nM.

For `CC(C)OC(=O)N[C@H]1CC[C@H](c2ncc(-c3ccc(Nc4ccc(Cl)nn4)cc3S(=O)(=O)NC(C)(C)C)s2)CC1` [Compound 173, isopropyl trans-N-[4-[5-[2-(tert-butylsulfamoyl)-4-[(6-chloropyridazin-3-yl)amino]phenyl]thiazol-2-yl]cyclohexyl]carbamate], the EC50 was in the range of 100 to 1000 nM.

`CC(C)OC(=O)N[C@H]1CC[C@H](c2ncc(-c3ccc(Nc4cccnn4)cc3S(=O)(=O)NC(C)(C)C)s2)CC1` [Compound 174, isopropyl trans-N-[4-[5-[2-(tert-butylsulfamoyl)-4-(pyridazin-3-ylamino)phenyl]thiazol-2-yl]cyclohexyl]carbamate]: the EC50 lay in the range of 100 to 1000 nM.
